Experimental data taken from BindingDB's records for doi:10.1016/j.bioorg.2015.10.003 (University of Technology Sydney, 2015).

Each compound was assayed against Polyphenol oxidase 1 [N65D,S176D,K211T,P277A,P406L] (Agaricus bisporus var. bisporus (strain H97 / ATCC MYA-4626 / FGSC 10389), UniProt Q00024, K211T/N65D/P277A/P406L/S176D) (assay: Enzymatic Activity Assay). Conditions: pH 6.8.
Description: The mushroom tyrosinase inhibition activity of hydroxy naphthylchalcone compounds was measured using L-DOPA as substrate. The activity assay used 3 ml of reaction medium containing 0.5 mM L-DOPA in 50 mM Na2HPO4-NaH2PO4 buffer (pH 6.8). […] The substrate reaction progress curve was analyzed to obtain the reaction rate constants. The reaction was carried out at 30 °C and pH 6.8.

Compound | IC50 | Ki
O=C(/C=C/c1ccc(O)c([N+](=O)[O-])c1)c1cc2ccccc2cc1O [(2E)-1-(3-hydroxynaphthalen-2-yl)-3-(4-hydroxy-3-nitrophenyl) prop-2-en-1-one (4b)] | 25.6 µM | 11.9 µM
O=C(/C=C/c1ccc([N+](=O)[O-])cc1O)c1cc2ccccc2cc1O [(2E)-1-(3-hydroxynaphthalen-2-yl)-3-(2-hydroxy-4-nitrophenyl) prop-2-en-1-one (3b)] | 22.9 µM | 11.2 µM
O=C(/C=C/c1cc(O)ccc1O)c1cc2ccccc2cc1O [(2E)-3-(2,5-dihydroxyphenyl)-1-(3-hydroxynaphthalen-2-yl) prop-2-en-1-one (1b)] | 20.4 µM | 10.8 µM
O=C(/C=C/c1cc(O)cc(O)c1)c1cc2ccccc2cc1O [(2E)-3-(3,5-dihydroxyphenyl)-1-(3-hydroxynaphthalen-2-yl)prop-2-en-1-one (5b)] | 10.4 µM | 3.8 µM
O=C(/C=C/c1ccc(O)cc1O)c1cc2ccccc2cc1O [(2E)-3-(2,4-dihydroxyphenyl)-1-(3-hydroxynaphthalen-2-yl) prop-2-en-1-one (2b)] | 14.4 µM | 4.5 µM
